The subject of data set [1] is Plasmodium berghei. As to the kind of experiment: Antimalarial activity against luciferase expressing liver stage Plasmodium berghei ANKA infected in human Huh-7 cells assessed as reduction in parasite load at 10 uM measured after 44 hrs post infection by Bright-glo reagent based luciferase reporter assay relative to control. The format is functional. On the set-up: scale not given: the % may be the effect or the level left.

Data set [2] has as its system Huh-7. As to the kind of experiment: Cytotoxicity against human Huh-7 cells infected with luciferase expressing liver stage Plasmodium berghei ANKA assessed as reduction in cell viability at 10 uM measured after 44 hrs post infection by Cell-TiterFluor viability assay relative to control. The format is toxicity, cell-based. Particulars: huh-7, 44 h.
The target in the next data set is T1, HSP90 (Plasmodium falciparum 3D7, UniProt Q8IL32).
T1 sequence (Q8IL32 whole entry): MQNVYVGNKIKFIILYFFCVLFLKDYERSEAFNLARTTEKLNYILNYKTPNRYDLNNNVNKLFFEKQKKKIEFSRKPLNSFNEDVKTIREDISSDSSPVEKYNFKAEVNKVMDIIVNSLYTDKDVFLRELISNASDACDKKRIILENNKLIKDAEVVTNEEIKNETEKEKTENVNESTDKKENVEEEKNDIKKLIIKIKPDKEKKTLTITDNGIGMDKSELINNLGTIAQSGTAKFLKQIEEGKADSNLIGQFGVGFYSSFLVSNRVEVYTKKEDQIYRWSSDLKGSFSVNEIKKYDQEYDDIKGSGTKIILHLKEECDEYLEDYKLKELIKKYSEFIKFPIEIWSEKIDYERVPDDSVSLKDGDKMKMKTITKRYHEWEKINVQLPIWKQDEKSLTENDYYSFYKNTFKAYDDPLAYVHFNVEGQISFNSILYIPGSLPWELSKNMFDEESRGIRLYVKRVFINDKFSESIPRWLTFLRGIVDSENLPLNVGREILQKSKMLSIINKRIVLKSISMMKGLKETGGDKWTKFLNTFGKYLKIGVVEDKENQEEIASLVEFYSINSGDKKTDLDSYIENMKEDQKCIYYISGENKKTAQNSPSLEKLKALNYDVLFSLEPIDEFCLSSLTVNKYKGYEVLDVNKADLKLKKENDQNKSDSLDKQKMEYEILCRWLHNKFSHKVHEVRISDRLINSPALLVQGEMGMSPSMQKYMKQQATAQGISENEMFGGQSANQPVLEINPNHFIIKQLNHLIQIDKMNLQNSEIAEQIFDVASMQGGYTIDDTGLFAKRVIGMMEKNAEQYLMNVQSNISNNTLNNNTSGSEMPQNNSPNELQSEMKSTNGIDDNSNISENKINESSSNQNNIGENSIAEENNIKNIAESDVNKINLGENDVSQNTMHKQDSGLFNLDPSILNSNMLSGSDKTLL
In words: Inhibition of recombinant his-tagged Plasmodium falciparum Hsp90 GHKL domain expressed in Escherichia coli BL21 (DE3) cells by bis-ANS binding assay.

The test system of data set [3] is Plasmodium berghei. As to the kind of experiment: Antimalarial activity against luciferase expressing liver stage Plasmodium berghei ANKA infected in human Huh-7 cells assessed as reduction in parasite load measured after 44 hrs post infection by Bright-glo reagent based luciferase reporter assay. Particulars: Huh-7, 44 h. The format is functional, organism-based. In general terms: Reporter assays use an easily measured gene product as a stand-in for the process of interest.

Data set [4] has as its system Huh-7. As to the kind of experiment: Cytotoxicity against human Huh-7 cells infected with luciferase expressing liver stage Plasmodium berghei ANKA assessed as reduction in cell viability upto 100 uM measured after 44 hrs post infection by Cell-TiterFluor viability assay. The format is toxicity, cell-based. The settings on record: huh-7, 44 h.
Data set [5] has as its system Huh-7. As to the kind of experiment: Cytotoxicity against human Huh-7 cells infected with luciferase expressing liver stage Plasmodium berghei ANKA assessed as reduction in cell viability at high doses measured after 44 hrs post infection by Cell-TiterFluor viability assay. The format is toxicity, cell-based. The settings on record: huh-7, 44 h.

Among the data in ChEMBL document CHEMBL5365414, “Synthesis and activity of β-carboline antimalarials targeting the Plasmodium falciparum heat shock 90 protein” (Bioorg Med Chem Lett, 2023) are Activity, IC50 and EC50 values, retold here.

On to `COc1ccc2[nH]c3c(-c4ccccc4)nccc3c2c1`, for which the Activity in the data set on Plasmodium berghei [1] was greater than 50%.
Take `c1ccc2c(c1)[nH]c1c(-c3ccsc3)nccc12`: the Activity is listed as 78% in the data set with Huh-7 [2] and greater than 50% with Plasmodium berghei [1].
A word on the IC50: it is the point on the concentration scale where inhibition reaches its midpoint. `CC1NCCc2c1[nH]c1ccc(Cl)cc21` (stereo not drawn): the concentration for half-maximal inhibition (IC50) at HSP90 is 12.2 µM.
On to `Clc1cccc(-c2nccc3c2[nH]c2ccccc23)c1`, for which the Activity in the data set with Plasmodium berghei [1] is reported as greater than 50%.
Still for that read-out and setting: the figure for `c1cncc(-c2nccc3c2[nH]c2ccccc23)c1` is greater than 50%.
The same measure, in the same setting: the figure for `N#Cc1ccc(-c2nccc3c2[nH]c2ccccc23)cc1` is greater than 50%.
What is called EC50 is the concentration at which the effect is half-maximal. Consider `FC(F)(F)c1ccc(-c2nccc3c2[nH]c2ccccc23)cc1`, for which the EC50 in the data set on Plasmodium berghei [3] amounted to 5.2 µM. Moreover, the Activity entry in the data set with Huh-7 [4] is “Non-Toxic”; with Plasmodium berghei [1] it was 5.8%.
In the case of `c1ccc2c(c1)[nH]c1c(C3CC3)nccc12`, the Activity with Plasmodium berghei [1] is listed as greater than 50%.
As to `Clc1cccc(-c2nccc3c2[nH]c2ccc(Cl)cc23)c1`, in the data set with Plasmodium berghei [1], the Activity was greater than 50%.
On the same count and under the same terms, the figure for `COc1ccc(-c2nccc3c2[nH]c2ccccc23)cc1` is greater than 50%.
The same measure, in the same setting: the figure for `COc1ccc2c(c1)[nH]c1c(C3CC3)nccc12` is greater than 50%.
Consider `Clc1ccc2[nH]c3c(-c4ccccc4)nccc3c2c1`, for which the Activity in the data set with Plasmodium berghei [1] is greater than 50%.
For `FC(F)(F)c1cccc(-c2nccc3c2[nH]c2ccc(Cl)cc23)c1`, the Activity result in the data set with Huh-7 [5] was “Toxic”; in the data set on Plasmodium berghei [1] it was 15%. For the same compound, in the data set on Plasmodium berghei [3], the EC50 was 5.2 µM.
In the case of `Cc1cccc(-c2nccc3c2[nH]c2ccc(Cl)cc23)c1`, the Activity with Plasmodium berghei [1] is 41%.
As for `COc1cccc(-c2nccc3c2[nH]c2ccc(Cl)cc23)c1`, the Activity is reported as 78% in the data set on Huh-7 [2] and greater than 50% in the data set on Plasmodium berghei [1].
Consider `O=C1C(O)=C([C@H]2CC[C@H](c3ccc(Cl)cc3)CC2)C(=O)c2ccccc21` [ATOVAQUONE], for which the EC50 in the data set on Plasmodium berghei [3] amounted to 0.01 µM.
Consider `c1ccc2c(c1)[nH]c1cnccc12` [NORHARMANE], for which the Activity in the data set on Plasmodium berghei [1] is given as greater than 50%.
